Data as given in US7834173B2, “Esters of hyaluronic acid with rhein, process for their preparation and compositions comprising the same” (Laboratoire Medidom S.A., priority 2004, dated 2010).

Assay: Viscosity / syringeability of 1% w/v solutions (VISCOMATE VM-10A)
Format: physicochemical
Details: 1% w/v in phosphate-buffered saline solution pH 7.4, 20±0.2° C., no stirring
Experimental: The syringeability of the HA-Re compound of the invention was analysed in comparison to that of hyaluronic acid both with a high and a low molecular weight.
In particular, the following three samples were prepared: • a) a 1% w/v solution of high molecular weight hyaluronic acid (average molecular weight approximately 1'200'000) in phosphate-buffered saline solution, pH 7.4 • b) a 1% w/v solution of low molecular weight hyaluronic acid (average molecular weight approximately 600'000) in phosphate-buffered saline solution, pH 7.4 • c) a 1% w/v solution of the HA-Re compound of the invention in phosphate-buffered saline solution, pH 7.4.
The viscosity of the samples was then measured using a VISCOMATE MODEL VM-10A (glass vial: 3 ml; in the absence of stirring conditions; temperature 20±0.2° C.), with the following values being obtained: • a) η=78.4 mPa·s • b) η=64.8 mPa·s • c) η=47.9 mPa·s

low molecular weight hyaluronic acid
viscosity η: 64.8 mPa·s
